Data reported in paper PMC10144242, “Design, Synthesis, In Vitro, and In Silico Insights of 5-(Substituted benzylidene)-2-phenylthiazol-4(5H)-one Derivatives: A Novel Class of Anti-Melanogenic Compounds” (Molecules, 2023).

How the values were obtained:
[1] = DPPH radical scavenging assay; details: 1 mM, 30 min in the dark
Experimental: The 2,2-diphenyl-1-picrylhydrazyl (DPPH) radical scavenging capacity of the (Z)-BPT derivatives (1 mM) was investigated using L-ascorbic acid (1 mM, vitamin C) as a positive control. […] L-Ascorbic acid scavenged 97.1% of the DPPH radical, whereas (Z)-BPT derivative 1 with a 4-hydroxyl substituent on the β-phenyl ring scavenged 46.5% of the DPPH radical.
The antioxidant properties of (Z)-BPT derivatives 1–14 against DPPH (2,2-diphenyl-1-picrylhydrazyl) radicals were examined using a DPPH radical scavenging assay, as previously described with minor modifications. DPPH solution (180 µL, 0.2 mM) in methanol was mixed with a (Z)-BPT derivative solution (1–14, 20 µL, 10 mM) in dimethyl sulfoxide in each well of a 96-well plate, and the mixture was kept for 30 min in the dark at room temperature. The absorbance at 517 nm was measured using a VersaMax ™ microplate reader (Molecular Devices, Sunnyvale, CA, USA). The capacity of the derivatives to scavenge DPPH radicals was compared with that of L-ascorbic acid, which was used as the positive control. Each experiment was run independently in triplicates.
Figure 10 The radical scavenging effect of (Z)-BPT derivatives on DPPH. The DPPH radical scavenging activities of test samples (1 mM) were assayed after being left in the dark for 30 min. Distilled water and dimethyl sulfoxide (DMSO) were utilized as the solvents for the positive control L-ascorbic acid and the (Z)-BPT derivatives, respectively. Asterisks (***) represent a significant difference between L-ascorbic acid and the (Z)-BPT derivatives, and results are expressed as the mean ± standard error of three different experiments. *** p < 0.001.

[2] = tested on: B16F10 cells; assay: Cell viability / cytotoxicity, EZ-Cytox assay; type: cell-based, murine
Experimental: Before investigating their inhibitory effects on B16F10 cells, the viability of (Z)-BPT derivatives 1–3 was examined in B16F10 cells.
To determine the cell viability, six different concentrations (0, 1, 2, 5, 10, and 20 µM) of (Z)-BPT derivatives 1–3 were used, and the results were examined at two time points (48 and 72 h). […] Based on the cell viability results, the concentrations for cell-based assays related to the melanin production level and cellular tyrosinase activity were determined.
Cytotoxicity studies of (Z)-BPT derivatives 1–3 were performed on B16F10 melanoma cells using the previously established EZ-Cytox (EZ-3000, DoGenBio, Seoul, Republic of Korea) test, and cytotoxicity studies of (Z)-BPT derivatives 1–3 were conducted on B16F10 melanoma cells. Briefly, B16F10 cells were seeded in a 96-well plate at a density of 1 × 10^4 cells/well and cultivated at 37 °C for 24 h in a humid environment with 5% CO2. […] The cells were then incubated at 37 °C for 2 h after 10 µL of the EZ-Cytox solution had been added to each well. To determine the cell viability, the absorbance of each well was measured at 450 nm using a microplate reader (VersaMax^TM, Molecular Devices, Sunnyvale, CA, USA). Each assay was performed in triplicates.
Figure 6 Effects of (Z)-BPT derivatives 1–3 on cell viability in B16F10 cells. Cytotoxic effects were measured using an EZ-Cytox assay at six different concentrations (0, 1, 2, 5, 10, and 20 µM) of 1–3. (A) Derivative 1; (B) Derivative 2; (C) Derivative 3. *** p < 0.001 for non-treated cells vs. cells treated with 3.

[3] = target: T1, mushroom tyrosinase (Agaricus bisporus, UniProt C7FF04); assay: Kinetic studies on mushroom tyrosinase inhibition (Lineweaver–Burk and Dixon plots, L-DOPA substrate); type: biochemical; design: purchased Sigma-Aldrich
Experimental: As depicted in Figure 2, the mechanisms of tyrosinase inhibition were analyzed using Lineweaver–Burk plots. […] Each of the four straight lines produced at each inhibitor concentration converged to a single point on the y-axis. […] In contrast, in derivative 3, four straight lines generated at each inhibitor concentration intersected at a point in the second quadrant. According to the Lineweaver–Burk plot, as the inhibitor concentration increased, the Vmax value of 3 decreased, but the KM value increased.
To determine the Ki (inhibition constant) values of (Z)-BPT derivatives 1–3, Lineweaver–Burk plots for 1–3 were transformed into the corresponding Dixon plots (Figure 3). Each Dixon plot obtained from each Lineweaver–Burk plot produced four straight lines that intersected at one point in the second quadrant. The vertical lines from the merge point to the x-axis provide the Ki value of each (Z)-BPT derivative.
To determine the mode of action, Lineweaver–Burk plots of (Z)-BPT derivatives 1–3 were acquired. In brief, 10 µL of (Z)-BPT derivatives 1–3 (final concentrations:0, 3, 6, or 12 µM for 1; 0, 0.05, 0.1, or 0.2 µM for 2; 0, 2.5, 5, or 10 µM for 3) was added to a 96-well plate containing a substrate mixture (170 µL) consisting of an aqueous solution of L-dopa at final concentrations of 0.5, 1.0, 2.0, or 4.0 mM and 14.7 mM potassium phosphate buffer (pH 6.5), and a mushroom tyrosinase aqueous solution (20 µL, 20 units). Using a microplate reader (VersaMax^TM, Molecular Devices, Sunnyvale, CA, USA) to measure the increase in absorbance at a wavelength of 492 nm (ΔOD492/min), the initial rate of dopachrome synthesis in the reaction mixture was estimated. Using five different concentrations of L-dopa, Lineweaver–Burk plots (inverse of the response rate (1/V) vs. inverse of L-dopa concentration (1/(S)) were created. The convergence points of the four plot lines were used to define the mode of action of tyrosinase inhibition.
Figure 2 Lineweaver–Burk plots for the inhibition of mushroom tyrosinase activity by (Z)-BPT derivatives 1–3. […] Three independent experiments with five different concentrations (0.5, 1, 2, 4, and 8 mM) of an L-DOPA substrate were used to measure the augmented dopachrome optical density per minute at 492 nm. The data are shown as mean values of 1/V (an inverse of that optical density per minute). The (Z)-BPT derivatives were used at concentrations of 0 (filled circles), 3 (unfilled circles), 6 (filled triangles), and 12 µM (unfilled triangles) for 1; 0 (filled circles), 0.05 (unfilled circles), 0.1 (filled triangles), and 0.2 µM (unfilled triangles) for 2; and 0 (filled circles), 2.5 (unfilled circles), 5 (filled triangles), and 10 µM (unfilled triangles) for 3. Each experiment was run independently in triplicates.
Figure 3 Dixon plots for the inhibition of mushroom tyrosinase activity by (Z)-BPT derivatives 1–3. The Ki values of (Z)-BPT derivatives 1–3 were obtained from the absolute values of the x-coordinate where four straight lines converged at one point. Three independent experiments with four different concentrations of (Z)-BPT derivatives were conducted to measure the augmented dopachrome optical density per minute at 492 nm. The data are shown as the mean values of 1/V (an inverse of that optical density per minute). The (Z)-BPT derivatives were used at concentrations of 0, 3, 6, and 12 µM for 1; 0, 0.05, 0.1, and 0.2 µM for 2; and 0, 2.5, 5, and 10 µM for 3. The experiments were performed at four different concentrations (0.5, 1, 2, and 4 mM) of L-DOPA. Each experiment was run independently in triplicates.
Target sequence in this assay (C7FF04 1-392 limits assumed): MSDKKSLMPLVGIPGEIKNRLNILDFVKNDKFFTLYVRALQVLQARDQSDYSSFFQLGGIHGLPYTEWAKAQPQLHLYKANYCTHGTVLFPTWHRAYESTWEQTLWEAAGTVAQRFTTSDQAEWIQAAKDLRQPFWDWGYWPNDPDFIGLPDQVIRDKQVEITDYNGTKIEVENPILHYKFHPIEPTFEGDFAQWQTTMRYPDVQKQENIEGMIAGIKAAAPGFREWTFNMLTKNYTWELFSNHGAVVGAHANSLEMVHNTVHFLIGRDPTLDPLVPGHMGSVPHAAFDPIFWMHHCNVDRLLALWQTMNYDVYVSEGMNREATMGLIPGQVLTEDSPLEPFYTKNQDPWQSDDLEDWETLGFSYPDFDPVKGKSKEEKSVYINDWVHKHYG

[4] = target: T1, mushroom tyrosinase; assay: Inhibition assay against mushroom tyrosinase (L-tyrosine substrate); type: biochemical
Target sequence in this assay (C7FF04 1-392): as the sequence (C7FF04 1-392 limits assumed) above
Experimental: Therefore, the inhibitory effect of 14 synthetic (Z)-BPT derivatives on mushroom tyrosinase was investigated according to a previously described procedure [39].
Tyrosinase inhibition experiments were performed independently in triplicates. […] The IC50 values are presented as the mean ± standard error of the mean (SEM).
Minor modifications were made to the previous description of the inhibitory activity of mushroom tyrosinase [39]. […] After 30 min incubation at 37 °C, the amount of dopachrome produced in the assay mixture was measured at 492 nm using a microplate reader (VersaMax^TM, Molecular Devices, Sunnyvale, CA, USA) for determining the remaining tyrosinase activity. To obtain the IC50 values for each test sample, dose-dependent inhibition studies were performed in triplicates using three to five different concentrations of each test sample.

SMILES	DPPH radical scavenging activity [1]	other results
O=C1N=C(c2ccccc2)S/C1=C\c1ccc(O)c(O)c1 [Compound 3, (Z)-5-(3,4-Dihydroxybenzylidene)-2-phenylthiazol-4(5H)-one]	96.2%	concentrations showing cytotoxic effects ([2]; at 72 h (first statement of the sentence)): ≥ 5 µM; concentrations showing cytotoxic effects ([2]; at 72 h (second statement of the sentence)): ≥ 2 µM; Ki ([3]; Dixon plots, read-out: Ki (inhibition constant)): 4.8 µM; Inhibition type ([3]; Lineweaver–Burk plot): mixed-type inhibitor
COc1cc(/C=C2\SC(c3ccccc3)=NC2=O)ccc1O [Compound 4, (Z)-5-(4-Hydroxy-3-methoxybenzylidene)-2-phenylthiazol-4(5H)-one]	81.0%	–
CCOc1cc(/C=C2\SC(c3ccccc3)=NC2=O)ccc1O [Compound 5, (Z)-5-(3-Ethoxy-4-hydroxybenzylidene)-2-phenylthiazol-4(5H)-one]	58.0%	–
COc1ccc(/C=C2\SC(c3ccccc3)=NC2=O)cc1O [Compound 6, (Z)-5-(3-Hydroxy-4-methoxybenzylidene)-2-phenylthiazol-4(5H)-one]	25.1%	–
O=C1N=C(c2ccccc2)S/C1=C\c1ccccc1O [Compound 7, (Z)-5-(2-Hydroxybenzylidene)-2-phenylthiazol-4(5H)-one]	–	mushroom tyrosinase inhibitory activity (in words) [4]: did not exhibit mushroom tyrosinase inhibitory activity
COc1cc(/C=C2\SC(c3ccccc3)=NC2=O)cc(OC)c1O [Compound 12, (Z)-5-(4-Hydroxy-3,5-dimethoxybenzylidene)-2-phenylthiazol-4(5H)-one]	moderate to strong DPPH radical scavenging activity	–
O=C1N=C(c2ccccc2)S/C1=C\c1ccc(O)c(Br)c1 [Compound 13, (Z)-5-(3-Bromo-4-hydroxybenzylidene)-2-phenylthiazol-4(5H)-one]	14.8%	–
O=C1N=C(c2ccccc2)S/C1=C\c1cc(Br)c(O)c(Br)c1 [Compound 14, (Z)-5-(3,5-Dibromo-4-hydroxybenzylidene)-2-phenylthiazol-4(5H)-one]	57.3%	–
O=C1O[C@H]([C@@H](O)CO)C(O)=C1O [L-Ascorbic acid, L-ascorbic acid, reference compound]	97.1%	–
